This is an account of results in patent US20050214285A1, “Epitopes or mimotopes derived from the C-epsilon-3 or C-epsilon-4 domains of IgE, antagonists thereof, and their therapeutic uses” (SmithKline Beecham Biologicals, s.a. and Peptide …, priority 1999, published 2005).

The subject of data set [1] is PTmAb0011. The experiment in a line: Phage display ranking of peptide ligands for PTmAb0011. The data set is classed as binding, mouse. Conditions: IgEC67 mutants (Table 8). An excerpt: Phage display libraries were used to map the binding sites of the monoclonal antibodies using three different phage libraries, displaying either the XCX15, XCX10 or XAX10 peptide sequence (where X is any amino acid) at the N-terminus of the phage gVIIIp. Tables 6 and 7 show the results of selecting for peptide ligands with the anti human IgE monoclonal antibodies […]. […]
(§1) This involved a DNA sub-cloning transfer from the major coat protein (gVIIIp) filamentous phage display vector to a lower copy number minor phage coat protein (gIIIp) display vector with a random PCR step. […] Included in the tables are ranking orders and also BIAcore affinities where available.

The target in data set [2] is PTmAb0005. The experiment in a line: BIAcore affinity to PTmAb0005. The note with it: read-out: PTmAb BIAcore KD^Rel (μM) PTmAb0005. It is filed as binding.
Excerpt: as §1
(§2) Thus indicating the importance of correct presentation of the peptides of the present invention to adopt a shape which closely resembles the native target in the context of the whole IgE molecule. [drawing]
For orientation: In SPR one partner is held on a chip, and binding of the other changes the refractive index at the surface.

The subject of data set [3] is PTmAb0005. The experiment in a line: Phage display ranking of peptide ligands for PTmAb0005. It is filed as binding.
Data set [4] deals with PTmAb0011. The experiment in a line: BIAcore affinity to PTmAb0011. It is filed as binding, mouse. The note with it: read-out: PTmAb BIAcore KD^Rel (μM) PTmAb0011.
Excerpt: as §1, §2

The test system of the next data set is human IgE. In words: Immunisation of mice with peptide expressing phage. The data set is classed as in vivo, mouse. The note with it: peptide expressing phage used as immunogen.
The test system of a further data set is biotinylated peptide. The experiment in a line: Anti-peptide ELISA of sera from immunised mice. Conditions: for Anti peptide immune responses, Mid point titres, Av / Anti peptide immune responses, Mid point titres, GM / Anti peptide immune responses/mouse, Mid point titres, mouse 1 / Anti peptide immune responses/mouse, Mid point titres, mouse 2 / Anti peptide immune responses/mouse, Mid point titres, mouse 3 / Anti peptide immune responses/mouse, Mid point titres, mouse 4 / Anti peptide immune responses/mouse, Mid point titres, mouse 5 / Anti peptide immune responses/mouse, Mid point titres, mouse 6 / Anti peptide immune responses/mouse, Mid point titres, mouse 7 / Anti peptide immune responses/mouse, Mid point titres, mouse 8 / Anti peptide immune responses/mouse, Mid point titres, mouse 9 / Anti peptide immune responses/mouse, Mid point titres, mouse 10: conjugated to BSA, 14 days after third vaccination; for Anti peptide immune responses, Mid point titres, Av: average; for Anti peptide immune responses, Mid point titres, GM: geomean. The data set is classed as in vivo, BalbC mice. The method, then: The anti-peptide and anti-carrier immune responses were investigated using an ELISA technique outlined below. Microtiterplates (Nunc) are coated with the specific antigen in PBS (4° overnight) with either: Streptavidin at 2 μg/ml (followed by incubation with biotinylated peptide (1 μM) for 1 hour at 37° C.), Wash 3×PBS-Tween 20 0.1%. Saturate plates with PBS-BSA 1%-Tween 20 0.1% (Sat buffer) for 1 hr at 37°. Add 1° antibody=sera in two-step dilution (in Sat buffer), incubate 1 hr 30 minutes at 37°. Wash 3×. Add 2° anti-mouse Ig (or anti-mouse isotype specific monoclonal antibody) coupled to HRP. Incubate 1 hr at 370. Wash 5×. Reveal with TMB (BioRad) for 10 minutes at room temperature in the dark. Block reaction with 0.4N H2SO4.
(§3) The conjugates comprising the mimotope P15 (25 μg protein/dose), described in 1.4, were administered into groups of 10 BalbC mice, adjuvanted with and oil in water emulsion containing QS21 and 3D-MPL described in WO 95/17210 . Boosting was be performed on day 21 and on day 42 and sera can be harvested on day 42 and 56. The immune response anti-peptide and anti-plate bound IgE was followed using methods described in Example 1.

In data set [5] the test system is basophils from freshly harvested peripheral blood from allergic patients. An excerpt:
Several dilutions of complete sera or IgG purified from conjugate immunised mice can be tested in presence of basophils from freshly harvested peripheral blood from allergic patients.

Another data set concerns human chimaeric IgE. In words: IgE plate bound ELISA: anti-human IgE reactivity in mouse serum. It is filed as in vivo. The note with it: for anti-IgE antibody response when presented on carriers: in vivo. As for the experimental part: ELISA plates are coated with human chimaeric IgE at 1 μg/ml in pH 9.6 carbonate/bicarbonate coating buffer for 1 hour at 37° C. or overnight at 4° C. Non-specific binding sites are blocked with PBS/0.05% Tween-20 containing 5% w/v Marvel milk powder for 1 hour at 37° C. […] Polyclonal serum binding is detected with goat anti-mouse IgG-Biotin (1/2000) followed by Streptavidin-HRP (1/1000). Conjugated antibody is detected with TMB substrate at 450nm. A standard curve of PTmAb0011 is included on each plate so that the anti-IgE reactivity in serum samples can be calculated in μg/ml.
as §3
The mice were bled after the last immunisation and tested for anti-IgE reactivity in the IgE plate bound ELISA. The individual, average (Av), geomean (GM), results are summarised below (SD=standard deviation).
These vaccines were administered into groups of 10 BalbC mice, and boosting was be performed on day 14 and on day 28 and sera was harvested on day 42. The immune response to anti-plate bound IgE and receptor orientated IgE, was then followed using the techniques described in example 1.4. Also, the activity of the antiserum in the inhibition of histamine release from allergic basophils was measured in the techniques described in 1.5.

The next data set relates to allergic human basophils. In words: Histamine release inhibition from allergic human basophils. Conditions: antiserum of an individual immunised mouse, dilution 1/30. The data set is classed as cell-based. As for the experimental part: Blocking activity of anti-P15 antibodies in the antiserum was evaluated by the measuring of the inhibition of the histamine release induced by the allergen. Histamine release and inhibition was measured as described in example 3. As P15 is a mimotope of P1, PTmAb0011 was used as a control as it is known to bind to the same epitope (P1).

The next data set addresses T1, Cε2-4 (human, UniProt P01854-1 106-428).
T1 construct: also called WT cε2-4; cε2-4 fragment
In words: ELISA, graded. A general note: ELISA stands for enzyme-linked immunosorbent assay.

Setting [6] is: BalbC mice, 25 μg protein/dose, day 14 post third vaccination.

The Kd is a measure of binding affinity in units of concentration.

Where “and” joins values, the source holds several entries; their conditions need not be identical. Identical values can stand only once. Positions of bridges follow the written chain, without caps; N, C: chain ends. Residues, ends and D or L forms follow the SMILES beside them. No end group written: not given here.

T1 sequence (P01854 other isoform, or with tags, fused parts or gaps limits assumed): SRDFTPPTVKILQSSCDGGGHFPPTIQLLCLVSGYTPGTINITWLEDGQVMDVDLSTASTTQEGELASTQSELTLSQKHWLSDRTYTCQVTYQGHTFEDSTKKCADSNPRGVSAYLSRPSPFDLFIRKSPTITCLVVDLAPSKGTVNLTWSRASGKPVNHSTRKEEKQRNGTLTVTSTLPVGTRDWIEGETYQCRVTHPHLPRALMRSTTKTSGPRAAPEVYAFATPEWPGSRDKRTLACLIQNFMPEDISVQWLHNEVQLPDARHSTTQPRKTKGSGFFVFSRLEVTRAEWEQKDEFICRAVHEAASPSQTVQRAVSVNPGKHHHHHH

In the case of `CC[C@H](C)[C@@H]1NC(=O)[C@H](Cc2ccccc2)NC(=O)[C@@H](N)CSSC[C@@H](C(=O)N2CCC[C@H]2C(=O)N[C@@H](CCCNC(=N)N)C(=O)N[C@@H](CCC(=O)O)C(=O)O)NC(=O)[C@H](CC(C)C)NC(=O)[C@H](CCC(=O)O)NC(=O)[C@H](CC(C)C)NC(=O)[C@H](CC(=O)O)NC(=O)[C@H](C)NC(=O)[C@H](CCSC)NC(=O)[C@H](CCC(N)=O)NC(=O)[C@H](CCCCN)NC(=O)[C@H](CC(N)=O)NC1=O` [IgEC67-8] (H-CFINKQMADLELCPRE-OH; disulfide 1-13), the “PTmAb Rank 0011” value with PTmAb0011 [1] amounted to 2.4. For the same molecule, at PTmAb0005 [2], the Kd was 0.0094 µM. In the data set on PTmAb0005 [3] (IgEC67-8 mutants (Table 9)), the “Rel. Rank A” value was 1.00 and the “Rel. Rank B” value came to 1.00. Also, in the data set on PTmAb0005 [3] (IgEC67 mutants (Table 8)), the “PTmAb Rank 0005” value was 4.36. Also, the Kd at PTmAb0011 [4] turned out to be 0.066 µM. In the data set with human IgE, the “anti-human IgE response in mice” value is “capable of inducing an anti-human IgE response in mice”.

For the molecule CSQKHWLSDRT-NH2 [Peptide P17], in the data set on biotinylated peptide, the “Anti peptide immune responses, Mid point titres, Av” value is 5446; the “Anti peptide immune responses, Mid point titres, GM” value is listed as 4656; the “Anti peptide immune responses/mouse, Mid point titres, mouse 1” value is given as 100; the “Anti peptide immune responses/mouse, Mid point titres, mouse 2” value is given as 4349. In the data set on biotinylated peptide, the “Anti peptide immune responses/mouse, Mid point titres, mouse 3” value amounted to 2850; the “Anti peptide immune responses/mouse, Mid point titres, mouse 4” value was 3434; the “Anti peptide immune responses/mouse, Mid point titres, mouse 5” value is listed as 6133; the “Anti peptide immune responses/mouse, Mid point titres, mouse 6” value was 2231. In the data set with biotinylated peptide, the “Anti peptide immune responses/mouse, Mid point titres, mouse 7” value amounted to 5085; the “Anti peptide immune responses/mouse, Mid point titres, mouse 8” value was 2991; the “Anti peptide immune responses/mouse, Mid point titres, mouse 9” value was 13070; the “Anti peptide immune responses/mouse, Mid point titres, mouse 10” value turned out to be 8874. In data set [5], the “anaphylactogenicity of the induced antiserum” value (“anaphylactogenicity” for short) is “non anaphylactogenic”. Further, the “anti-IgE antibody response when presented on carriers” value in the data set on human chimaeric IgE was “strong anti-IgE antibody responses”.

On to CSTTQEGELA-NH2 [Peptide P16], for which, in the data set on biotinylated peptide, the “Anti peptide immune responses, Mid point titres, Av” value worked out at 1882; the “Anti peptide immune responses, Mid point titres, GM” value was 1478; the “Anti peptide immune responses/mouse, Mid point titres, mouse 1” value stood at 1891; the “Anti peptide immune responses/mouse, Mid point titres, mouse 2” value worked out at 649. For the same molecule, in the data set on biotinylated peptide, the “Anti peptide immune responses/mouse, Mid point titres, mouse 3” value came out at 1299; the “Anti peptide immune responses/mouse, Mid point titres, mouse 4” value stood at 2349; the “Anti peptide immune responses/mouse, Mid point titres, mouse 5” value was found to be 591; the “Anti peptide immune responses/mouse, Mid point titres, mouse 6” value turned out to be 1474. Also, in the data set with biotinylated peptide, the “Anti peptide immune responses/mouse, Mid point titres, mouse 7” value came to 4605; the “Anti peptide immune responses/mouse, Mid point titres, mouse 8” value is recorded as 918; the “Anti peptide immune responses/mouse, Mid point titres, mouse 9” value came to 4177; the “Anti peptide immune responses/mouse, Mid point titres, mouse 10” value is recorded as 865. The “anaphylactogenicity” value in data set [5] was “non anaphylactogenic”. For the same molecule, the “anti-IgE antibody response when presented on carriers” value with human chimaeric IgE is “strong anti-IgE antibody responses”.

For “P15-BSA: P15 (CLEDGQVMDVDLL) conjugated to BSA (CLEDGQVMDVDLL-NH2; also: conjugated to BSA) [Peptide P15-BSA]”, in the data set with biotinylated peptide (setting [6]), the “Anti-peptide responses (Mid point titre) Average” value is listed as 49591 and the “Anti-peptide responses (Mid point titre) Geomean” value is given as 48719. Also, in data set [5], the “anaphylactogenicity” value is given as “Neither antiserum generated with P15-BSA or P15-PD was shown to be anaphylactogenic”. For the same molecule, the “% inhibition of histamine release” value in the data set with allergic human basophils was 67% and 57%. Further, in the data set on human chimaeric IgE (setting [6]), the “Anti-IgE responses (μg/ml (PTmAb0011)) Average” value is 2.2 µg/mL and the “Anti-IgE responses (μg/ml (PTmAb0011)) Geomean” value was found to be 1.0 µg/mL.

B1: recombinant FcεRIα ectodomain (receptor, UniProt P12319 26-205, looked up)
chain: VPQKPKVSLNPPWNRIFKGENVTLTCNGNNFFEVSSTKWFHNGSLSEETNSSLNIVNAKFEDSGEYKCQHQQVNESEPVYLEVFSDWLLLQASAEVVMEGQPLFLRCHGWRNWDVYKVIYYKDGEALKYWYENHNISITNATVEDSGTYYCTGKVWQLDYESEPLNITVIKAPREKYWLQ
notes: extracellular domain; also called FcεR1α ectodomain; FcεR1α
Turning to B1, in the data set with Cε2-4, the binding result is “binds”.
